From patent US9951065B2 (Gilead Sciences, Inc., priority 2015, dated 2018)

What follows are compounds tested against T1, IDO1 (Homo sapiens, UniProt P14902) (assay: Cell-based (HeLa) assay for measurement of IDO1 inhibition (kynurenine levels in supernatant after IFNγ induction)). Details: HeLa cells, IFNγ-induced IDO1, kynurenine in supernatant after 48 hour incubation; geometric mean of a minimum of four determinations.
T1 construct: HeLa cells were treated with a test compound in the presence of IFNγ, which induces IDO1 expression; host or cells: H1-HeLa cells, IDO1 induced with IFNγ
T1 sequence (P14902 whole entry): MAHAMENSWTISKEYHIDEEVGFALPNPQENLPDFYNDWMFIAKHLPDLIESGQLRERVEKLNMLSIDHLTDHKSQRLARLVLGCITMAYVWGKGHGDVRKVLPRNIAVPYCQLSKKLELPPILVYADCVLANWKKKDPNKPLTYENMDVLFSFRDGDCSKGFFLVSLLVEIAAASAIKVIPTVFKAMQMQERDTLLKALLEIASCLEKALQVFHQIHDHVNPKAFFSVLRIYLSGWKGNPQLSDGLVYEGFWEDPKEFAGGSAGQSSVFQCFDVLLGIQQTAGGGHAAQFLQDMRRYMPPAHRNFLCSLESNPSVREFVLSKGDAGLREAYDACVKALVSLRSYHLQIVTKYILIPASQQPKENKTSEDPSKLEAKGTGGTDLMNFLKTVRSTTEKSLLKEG
How it was run: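 IDO1 activity is read as kynurenine released into the medium, detected with Ehrlich's reagent (p-dimethylaminobenzaldehyde) at 480 nm after TCA treatment. HeLa cells were exposed 48 h to compounds in 0.5% DMSO alongside IFNγ induction. Values normalized to no-IFNγ and IFNγ controls; four-parameter EC50 given as geometric mean of ≥4 determinations.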

Row | Compound | EC50
1 | CC(C)(O)CNc1nc2c(F)c(F)cc(/C(=N/O)Nc3ccc(F)c(Cl)c3)c2[nH]1 [Example 292, N-(3-chloro-4-fluorophenyl)-4,5-difluoro-N′-hydroxy-2-((2-hydroxy-2-methylpropyl)amino)-1H-benzo[d]imidazole-7-carboximidamide] | 3320 nM
2 | CS(=O)(=O)NCc1nc2nccc(/C(=N/O)Nc3ccc(F)c(Cl)c3)c2[nH]1 [Example 181, N-(3-Chloro-4-fluorophenyl)-N′-hydroxy-2-(methylsulfonamidomethyl)-1H-imidazo[4,5-b]pyridine-7-carboximidamide] | 8970 nM
3 | COC(=O)NCCc1nc2nccc(/C(=N/O)Nc3ccc(F)c(Cl)c3)c2[nH]1 [Example 273, Methyl (2-(7-(N-(3-chloro-4-fluorophenyl)-N′-hydroxycarbamimidoyl)-1H-imidazo[4,5-b]pyridin-2-yl)ethyl)carbamate] | > 10000 nM
4 | COCc1nc2nccc(/C(=N/O)Nc3ccc(F)c(Cl)c3)c2[nH]1 [Example 110, N-(3-Chloro-4-fluorophenyl)-N′-hydroxy-2-(methoxymethyl)-1H-imidazo[4,5-b]pyridine-7-carboximidamide] | 2320 nM
5 | CN(C)Cc1nc2nccc(/C(=N/O)Nc3ccc(F)c(Cl)c3)c2[nH]1 [Example 113, N-(3-Chloro-4-fluorophenyl)-2-((dimethylamino)methyl)-N′-hydroxy-1H-imidazo[4,5-b]pyridine-7-carboximidamide] | 1840 nM

Continued, values first:

Row | EC50 | Compound
6 | 1670 nM | CCNCc1nc2c(F)ccc(/C(=N/O)Nc3ccc(F)c(Cl)c3)c2[nH]1 [Example 287, N-(3-chloro-4-fluorophenyl)-2-((ethylamino)methyl)-4-fluoro-N′-hydroxy-1H-benzo[d]imidazole-7-carboximidamide]
7 | 1300 nM | O/N=C(\Nc1ccc(F)c(Cl)c1)c1ccnc2nc(CCN3CCC3)[nH]c12 [Example 259, 2-(2-(azetidin-1-yl)ethyl)-N-(3-chloro-4-fluorophenyl)-N′-hydroxy-1H-imidazo[4,5-b]-pyridine-7-carboximidamide]
8 | 1210 nM | CN(CCNc1nc2nccc(/C(=N/O)Nc3ccc(F)c(Cl)c3)c2[nH]1)C1CCOCC1 [Example 239, N-(3-chloro-4-fluorophenyl)-N′-hydroxy-2-((2-(methyl(tetrahydro-2H-pyran-4-yl)amino)ethyl)amino)-1H-imidazo[4,5-b]pyridine-7-carboximidamide]
9 | 927 nM | CCNCc1nc2nccc(/C(=N/O)Nc3ccc(F)c(Cl)c3)c2[nH]1 [Example 114, N-(3-Chloro-4-fluorophenyl)-2-((ethylamino)methyl)-N′-hydroxy-1H-imidazo[4,5-b]pyridine-7-carboximidamide]
10 | 876 nM | COCCNc1nc2nccc(C(=NO)Nc3ccc(F)c(Cl)c3)c2[nH]1 [Example 212, N-(3-chloro-4-fluorophenyl)-N′-hydroxy-2-((2-methoxyethyl)amino)-1H-imidazo[4,5-b]pyridine-7-carboximidamide]
11 | 774 nM | O/N=C(\Nc1cc(Cl)c(F)c(Cl)c1)c1ccnc2nc[nH]c12 [Example 63, N-(3,5-Dichloro-4-fluorophenyl)-N′-hydroxy-1H-imidazo[4,5-b]pyridine-7-carboximidamide]
12 | 675 nM | O/N=C(\Nc1ccc(F)c(Cl)c1)c1ccnc2nc(CCN3CCC(Cc4ccccc4)CC3)[nH]c12 [Example 275, 2-(2-(4-benzylpiperidin-1-yl)ethyl)-N-(3-chloro-4-fluorophenyl),N′-hydroxy-1H-imidazo[4,5-b]pyridine-7-carboximidamide]
13 | 618 nM | O/N=C(\Nc1ccc(F)c(Cl)c1)c1ccnc2nc(CCN3CC4CCCC(C4)C3)[nH]c12 [Example 276, 2-(2-(3-azabicyclo[3.3.1]nonan-3-yl)ethyl)-N-(3-chloro-4-fluorophenyl)-N′-hydroxy-1H-imidazo[4,5-b]pyridine-7-carboximidamide]
14 | 564 nM | O/N=C(\Nc1ccc(F)c(Cl)c1)c1ccc(F)c2nc(NCCCN3CCOCC3)[nH]c12 [Example 200, N-(3-Chloro-4-fluorophenyl)-7-fluoro-N′-hydroxy-2-(3-morpholin-4-ylpropylamino)-3H-benzimidazole-4-carboximidamide]
15 | 531 nM | CCN(CC)CCc1nc2nccc(/C(=N/O)Nc3ccc(F)c(Cl)c3)c2[nH]1 [Example 185, N-(3-Chloro-4-fluorophenyl)-2-(2-(diethylamino)ethyl)-N′-hydroxy-1H-imidazo[4,5-b]pyridine-7-carboximidamide]
16 | 529 nM | O/N=C(\Nc1ccc(F)c(Cl)c1)c1ccnc2nc(NC3CC3)[nH]c12 [Example 154, N-(3-Chloro-4-fluorophenyl)-2-(cyclopropylamino)-N′-hydroxy-1H-imidazo[4,5-b]pyridine-7-carboximidamide]
17 | 434 nM | CNCc1nc2c(/C(=N/O)Nc3ccc(F)c(Cl)c3)cc(F)c(F)c2[nH]1 [Example 48, N-(3-Chloro-4-fluorophenyl)-4,5-difluoro-N′-hydroxy-2-((methylamino)methyl)-1H-benzo[d]imidazole-7-carboximidamide]
18 | 380 nM | C#Cc1cc(N/C(=N\O)c2ccnc3nc[nH]c23)ccc1F [Example 97, N-(3-ethynyl-4-fluorophenyl)-N′-hydroxy-1H-imidazo[4,5-b]pyridine-7-carboximidamide]

Same assay, conditions: HeLa cells, IFNγ-induced IDO1, kynurenine in supernatant, 48 hour incubation; geometric mean of a minimum of four determinations

Row | EC50 | Compound
19 | 1030 nM | O/N=C(\Nc1ccc(F)c(Cl)c1)c1cc(F)c(F)c2nc(NC3COCCC3N3CCCC3)[nH]c12 (stereo not drawn) [Example 473, N-(3-chloro-4-fluorophenyl)-4,5-difluoro-N′-hydroxy-2-((4-(pyrrolidin-1-yl)tetrahydro-2H-pyran-3-yl)amino)-1H-benzo[d]imidazole-7-carboximidamide]
20 | 2350 nM | O/N=C(\Nc1ccc(F)c(Cl)c1)c1cc(F)c(F)c2nc(NC3CCNC3)[nH]c12 (stereo not drawn) [Example 464, N-(3-chloro-4-fluorophenyl)-4,5-difluoro-N′-hydroxy-2-(pyrrolidin-3-ylamino)-1H-benzo[d]imidazole-7-carboximidamide]
21 | 838 nM | CC(CNc1nc2c(F)c(F)cc(/C(=N/O)Nc3ccc(F)c(Cl)c3)c2[nH]1)N1CCOCC1 (stereo not drawn) [Example 377, N-(3-chloro-4-fluorophenyl)-4,5-difluoro-N′-hydroxy-2-((2-morpholinopropyl)amino)-1H-benzo[d]imidazole-7-carboximidamide]
22 | 4000 nM | O/N=C(\Nc1ccc(F)c(Cl)c1)c1ccc(F)c2nc(NCCN3CCOCC3)[nH]c12 [Example 368, N-(3-chloro-4-fluorophenyl)-4-fluoro-N′-hydroxy-2-((2-morpholinoethyl)amino)-1H-benzo[d]imidazole-7-carboximidamide]
23 | 389 nM | CN1CCCC(Nc2nc3c(F)c(F)cc(/C(=N/O)Nc4ccc(F)c(Cl)c4)c3[nH]2)C1 (stereo not drawn) [Example 443, N-(3-chloro-4-fluorophenyl)-4,5-difluoro-N′-hydroxy-2-((1-methylpiperidin-3-yl)amino)-1H-benzo[d]imidazole-7-carboximidamide]
24 | 1080 nM | Nc1nc2cc(F)cc(/C(=N/O)Nc3ccc(F)c(Cl)c3)c2[nH]1 [Example 370, 2-amino-N-(3-chloro-4-fluorophenyl)-5-fluoro-N′-hydroxy-1H-benzo[d]imidazole-7-carboximidamide]
